Results reported in PubChem BioAssay (NCI).
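48-hour exposure; five concentrations; linearly interpolated endpoints. Definition used: TGI = concentration required for complete inhibition of growth.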

Columns and labels:
Assay in all cases: growth of human tumour cells (NCI), 48 h
KM12 colon = tested on: KM12 colon
OVCAR-5 ovarian = tested on: OVCAR-5 ovarian
NCI-H460 lung = tested on: NCI-H460 lung
CCRF-CEM leukemia = tested on: CCRF-CEM leukemia
EKVX NSCLC = tested on: EKVX NSCLC
OVCAR-8 ovarian = tested on: OVCAR-8 ovarian
UACC-62 melanoma = tested on: UACC-62 melanoma
NCI-H226 lung = tested on: NCI-H226 lung
SK-MEL-28 melanoma = tested on: SK-MEL-28 melanoma
SK-MEL-2 melanoma = tested on: SK-MEL-2 melanoma

SMILES	TGI (KM12 colon) [µM]	TGI (OVCAR-5 ovarian) [µM]	TGI (NCI-H460 lung) [µM]	TGI (CCRF-CEM leukemia) [µM]	TGI (EKVX NSCLC) [µM]	TGI (OVCAR-8 ovarian) [µM]	TGI (UACC-62 melanoma) [µM]	TGI (NCI-H226 lung) [µM]	TGI (SK-MEL-28 melanoma) [µM]	TGI (SK-MEL-2 melanoma) [µM]
O=C1C2=Cc3ccccc3CCN2c2ccc([N+](=O)[O-])cc21	> 100	> 100	> 100	> 100	> 100	> 100	> 100	> 100	> 100	
CCC/C(Cl)=N/OC(=O)Nc1cccc(F)c1	31.2	36.3	39		12.2	37.4	32.6	27.9	9.82	33.4
N/C(=N/O)c1cn(C2OC(CO)C(O)C2O)c2ncnc(NO)c12 (centres undefined)		> 57.7	7.59		> 100	> 100	1.66	17.4	> 51.3	0.176
O=[N+]([O-])c1ccc2nc(/C=C(\O)c3ccccc3)c(/C=C(\O)c3ccc(Cl)cc3)nc2c1	> 100	> 100	> 100	> 100	> 100	> 100	> 100	> 100		> 100
Cc1[nH]c2ncn(N)c(=N)c2c1Cc1ccccc1	> 100	> 100		> 100	> 100	> 100	> 100	> 100	> 100	> 100
CCCNc1c(Cl)cc(Cl)c2[nH]c3ccccc3c(=O)c12	> 100	> 100		> 100	> 100	> 100	> 100	> 100	> 100	> 100
c1ccc2c(-c3ccnc(-c4c[nH]c5ccccc45)n3)c[nH]c2c1	23.9	> 100	> 100	3.32	> 100	22.9			> 100	> 100
c1ccc(NC2(c3nnnn3C3CCCCC3)CCNCC2)cc1	31.3	43.4	31.7	55.4	79.7	81.9	38.5	62.3	32.5	
COc1ccc2c(c1)OCC1Cc3cccc(OC)c3OC21 (centres undefined)	> 100	> 100		> 100	> 100	> 100	> 100	> 100		> 100
CN(N=O)C(N)=NC(=O)c1ccccc1	> 100	> 100	40.6	> 100	> 100	> 100	> 100	> 100		> 100
Cc1oc2nc(N(C)C)n3c(C)nnc3c2c1C	> 100	> 100		> 100	> 100	> 100	> 100	> 100	> 100	
CC1(c2nc3ccccc3[nH]2)CCC(CO)C(C)(C)O1 (centres undefined)	> 100	> 100		> 100	> 100	> 100	> 100	> 100	> 100	> 100
O=C(N/N=C1\CCc2ccccc21)N/N=C1\CCc2ccccc21	> 100	> 100	> 100	> 100		> 100	> 100	> 100	> 100	> 100
COc1cc(/C=C2\N=C(c3ccccc3)N(/N=C/c3cc4cc(C)ccc4nc3Cl)C2=O)ccc1O	> 100	> 100	> 100	36	> 100	> 100	> 100		> 100	38.4
N#Cc1c(-c2ccccc2)cc(Nc2ccc(F)cc2)n2c1nc1ccccc12	> 100	> 29.2	> 100		> 29.1	> 32.7	14.8	> 24	> 100	4.35
CC(=O)NC1C(OCc2ccccc2)OC(CO)C(O)C1OCC(=O)NC(C)C(=O)NC(CCC(=O)Nc1ccc2c(c1)CN1C(=O)c3ccccc3C1=N2)C(N)=O (centres undefined)	> 100	> 100	> 100	> 100	> 100	> 100	> 100		> 100	> 100
CC1=NN(c2ccccc2Cl)C2(C1)SCC(=O)N2c1nc2ccccc2s1 (centres undefined)	> 100	> 100	> 100		> 100	> 100	> 100	> 100	> 100	> 100
